The values below come from patent US20210023029A1, “EDASALONEXENT DOSING REGIMEN FOR TREATING MUSCULAR DYSTROPHY” (Catabasis Pharmaceuticals, Inc., priority 2017, published 2021).

For series [1], the system named is NF-κB regulated and inflammation-related gene transcripts. Description: MoveDMD trial: NF-κB regulated and inflammation-related gene transcripts in whole blood (RNA sequencing). It counts as in vivo, human. The conditions noted are these: one week treatment. The method, then: To determine the effects of a given edasalonexent dosing regimen on NF-κB inhibition, the expression levels of a number of NF-κB regulated and inflammation-related gene transcripts were measured in whole blood samples from DMD patients.
NF-kB regulated and inflammation-related genes were chosen from the Broad Institute's HALLMARK TNF/NF-kB gene set (Liberzon, et. al., (2015), Cell Systems, 1(6):417-425). Blood was drawn from DMD boys before and one-week after edasalonexent treatment, and collected into PAXgene RNA tubes (Qiagen). RNA was extracted and sequenced to directly measure the abundance of transcripts in whole blood for both time points in each patient, and the abundance of transcripts one-week post treatment was compared to pre-treatment values to determine the relative change in each of the selected transcripts. This ratio for each gene across all patients within a dose cohort was averaged and is shown in FIG. 12 by columns as average +/−SEM. A value less than 1 indicates a decrease in the transcripts after one-week treatment with edasalonexent.

The test system of series [2] is boys with DMD. Description: MoveDMD trial: NSAA and timed function tests in boys with DMD. Format: in vivo, human. The procedure: The MoveDMD trial (see FIG. 10) was designed to evaluate efficacy, safety/tolerability, pharmacokinetics (PK), pharmacodynamics (PD), and dose response of edasalonexent. The first phase portion of the MoveDMD trial was a 1-week study to evaluate the safety, PK, and PD at 33 and 67 mg/kg/day, given in 2 divided doses, and 100 mg/kg/day given in 3 divided doses. The second phase and the open-label extension (OLE) portions of the MoveDMD trial enrolled boys ages 4 through 7 with DMD. Phase 2 was a 12-week placebo-controlled study with two cohorts given 33 mg/kg twice daily (BID; 67 mg/kg/day; n=10) or 33 mg/kg three times daily (TID; 100 mg/kg/day; n=10), and a placebo cohort (n=10). Patients in the OLE continued with either dose regimen of edasalonexent. The North Star Ambulatory Assessment (NSAA) is a validated functional scale specifically designed for ambulant boys with DMD and measures overall function in young boys. […] The 10-meter walk/run, 4-stair climb, and time to stand are all timed tests used as a measure of function in boys with DMD. In each of these tests, as shown in FIGS. 15-17, the average rate of change of speed by study subjects in completing these physical tasks stabilized during the 60 week 100 mg/kg/day edasalonexent treatment period as compared with the rate of change during the off-treatment control period (36 weeks preceding the treatment period). All timed function test values stabilized during the treatment period.

The test system of series [3] is boys with DMD. In words: MoveDMD trial: MRI-T2 and MR spectroscopy fat fraction of leg muscles. Format: in vivo, human. The source says: The MR transverse relaxation time constant assessed by MRI (MRI-T2; also referred to as bulk T2) is sensitive to several pathophysiological features of disease pathology in DMD, including muscle damage, inflammation, and fat infiltration and provides a method for monitoring disease pathology over a wide age range. Furthermore, the proportion of fat infiltration in the muscle (fat fraction), measured using the gold standard, proton MRS (^1H-MRS), or a 3-point Dixon imaging technique, is associated with disease progression and correlates with performance on functional tests. (Willcocks et al., (2016), ANN. NEUROL., 79(4):535-47; Barnard et al., (2018), PLoS ONE, 13(3):E0194283). These are non-invasive measures of disease progression in DMD that are elevated and increase with age; changes in these measures strongly correlate with changes in function and predict future loss of functional milestones. […] The MRI-T2 value was a composite of 5 lower leg muscles. Stabilization of MRI-T2 values is consistent with the concomitant slowing of DMD disease progression observed through the functional assessments discussed previously.

The test system of another series is mdx mice. Conditions: cited from earlier work.
The test system of series [4] is NF-κB. Conditions: dog model of DMD; cited from earlier work.
For series [5], the system named is NF-κB. The conditions noted are these: cited from earlier work.
Where [6] appears, read: 100 mg/kg/day, 60 weeks, compared to 36 week off-treatment control period.
The mark [7] stands for this setting: after 48 weeks receiving 100 mg/kg/day.

Entries after “also recorded” stand apart in the source; their conditions may differ.

`CC/C=C\C/C=C\C/C=C\C/C=C\C/C=C\C/C=C\CCC(=O)NCCNC(=O)c1ccccc1O` [edasalonexent, N-(2-[(4Z,7Z,10Z,13Z,16Z,19Z)-docosa-4,7,10,13,16,19-hexaenamido]ethyl)-2-hydroxybenzamide]: in series [1] (33 mg/kg/day), the “change in 24 NF-κB regulated and inflammation-related gene transcripts, Day 7 versus Day 1” value (“change … Day 7 versus Day 1” for short) is “decreases were generally not noted”. Moreover, the “change … Day 7 versus Day 1” value in series [1] (67 mg/kg/day) was “not so pronounced”. Besides, the “change … Day 7 versus Day 1” value in series [1] (100 mg/kg/day) is listed as “statistically significant decrease in all 24 transcripts; also recorded: most effective”. The “muscle function and DMD disease progression” value in the series with boys with DMD [2] (33 mg/kg TID (100 mg/kg/day), 60 weeks, compared to off-treatment control period) is “clinically meaningful slowing of disease progression; also recorded: preservation of muscle function and slowing of DMD disease progression”. The “efficacy compared to the 133 mg/kg/day dosing regimen” value in the series on boys with DMD [2] (100 mg/kg/day versus 133 mg/kg/day (33/33/67 mg/kg)) is given as “equally effective”. Further, in the series with boys with DMD [2] (setting [6]), the “4-stair climb, average rate of change of speed” value was “stabilized”; the “10-meter walk/run, average rate of change of speed” value is recorded as “stabilized”; the “North Star Ambulatory Assessment (NSAA) score, rate of change” value is “stabilized”; the “time to stand, average rate of change of speed” value is recorded as “stabilized”. Further, the treatment effects entry in the series with boys with DMD [2] (boys affected by DMD enrolled at age 4-7, MoveDMD phase 2 trial and open-label extension) is recorded as “positive treatment effects”. Further, the “annualized rate of change of MRI-T2 values (composite of 5 lower leg muscles)” value in the series with boys with DMD [3] (100 mg/kg/day treatment period (60 weeks) versus off-treatment period (36 weeks)) is “significantly improved”. In the series with boys with DMD [3] (setting [7]), the “change in fat fraction, soleus (MR spectroscopy)” value stood at 0.85% and the “change in fat fraction, vastus lateralis (MR spectroscopy)” value was determined as 5.9%. In addition, in the series on mdx mice (long-term studies on mdx mice (Milne et al. 2014)), the “diaphragm function and cumulative run distance” value is “improved diaphragm function and increased cumulative run distance”. Also, the “muscle regeneration, degeneration, inflammation and function” value in the series with mdx mice (mdx mice (Milne et al. 2014)) is “enhance muscle regeneration, reduce muscle degeneration and inflammation, and preserve muscle function”. Further, the “NF-κB activity (binding of p65 subunit to DNA, secretion of TNF-α)” value with NF-κB [4] was “decreases NF-κB activity”. In the series on NF-κB [5] (adult study, dose of approximately 100 mg/kg/day), the “expression of NF-κB driven genes in whole blood” value is recorded as “changes in expression of NF-κB driven genes were observed”. For the same compound, the “levels of the p65 subunit of NF-κB” value in the series on NF-κB [5] (healthy adult humans, compared to placebo or salicylate and omega-3 DHA as separate molecules) is listed as “lowers levels of the p65 subunit of NF-κB”. Moreover, in the series with NF-κB [5] (humans), the “biomarkers of inflammation in whole blood” value was “decrease of biomarkers of inflammation”. Further, the “activated NF-κB pathways” value in the series with NF-κB [5] (phase 1 clinical program in adults (Donovan et al. 2017)) was “inhibited activated NF-κB pathways”. In addition, the safety and tolerability entry with NF-κB [5] (phase 1 clinical program, three placebo-controlled studies in adults (Donovan et al. 2017)) is “safe and well-tolerated”.
